Tests used:
[1] = Quantum yield measurements; type: physicochemical; details: referred to Rhodamine B in EtOH, excitation 510 nm, emission integrated 540-800 nm
Description: Quantum yields were calculated by measuring the integrated emission area of the fluorescent spectra, and referring them to the area measured for Rhodamine B in EtOH after excitation at 510 nm (ΦRho-B=0.70). Quantum yields for the BDM products were then calculated using equation below, where F represents the area of fluorescent emission, n is reflective index of the solvent, and Abs is absorbance at excitation wavelength selected for standards and samples. Emission was integrated from 540 nm to 800 nm.

[2] = Spectroscopic properties of the BDM library (absorbance and emission maxima); type: physicochemical

Compound	φ (quantum yield) [1]	λmax (ABS) [2] [nm]	λmax (EM) [2] [nm]
CC1=CC(/C=C/c2ccccc2C)=[N+]2C1=C(CCN)c1cccn1[B-]2(F)F [BDM-143]	0.42	554	566
COc1cc(/C=C/c2cc(C)c3n2[B-](F)(F)[N+]2=CC=CC2=C3CCN)cc(OC)c1OC [BDM-1]	0.21	561	586
COc1ccc2ccccc2c1/C=C/C1=[N+]2C(=C(CCN)c3cccn3[B-]2(F)F)C(C)=C1 [BDM-61]	0.22	576	610
Cc1cc(/C=C/c2c3ccccc3cc3ccccc23)n2c1C(CCN)=C1C=CC=[N+]1[B-]2(F)F [BDM-6]	0.12	536	682
COc1ccc(/C=C/C2=[N+]3C(=C(CCN)c4cccn4[B-]3(F)F)C(C)=C2)c(F)c1 [BDM-359]	0.83	559	574
CCOc1ccc(/C=C/C2=[N+]3C(=C(CCN)c4cccn4[B-]3(F)F)C(C)=C2)cc1 [BDM-429]	0.23	564	586
COc1ccc(/C=C/c2cc(C)c3n2[B-](F)(F)[N+]2=CC=CC2=C3CCN)c(Cl)c1O [BDM-38]	0.06	565	579
COc1ccc(/C=C/C2=[N+]3C(=C(CCN)c4cccn4[B-]3(F)F)C(C)=C2)c(O)c1 [BDM-192]	0.20	574	605
Cc1cc(/C=C/c2ccc(-c3cccs3)s2)n2c1C(CCN)=C1C=CC=[N+]1[B-]2(F)F [BDM-30]	0.11	596	634
CCCc1ccc(/C=C/C2=[N+]3C(=C(CCN)c4cccn4[B-]3(F)F)C(C)=C2)cc1 [BDM-77]	0.54	557	569
COc1ccc2c(OC)ccc(/C=C/C3=[N+]4C(=C(CCN)c5cccn5[B-]4(F)F)C(C)=C3)c2c1 [BDM-70]	0.13	582	642
CCc1ccccc1/C=C/C1=[N+]2C(=C(CCN)c3cccn3[B-]2(F)F)C(C)=C1 [BDM-251]	0.22	556	572
Cc1cc(/C=C/c2ccc(N(c3ccccc3)c3ccccc3)cc2)n2c1C(CCN)=C1C=CC=[N+]1[B-]2(F)F [BDM-14]	0.02	593	624
CCCCCCOc1ccc(/C=C/c2cc(C)c3n2[B-](F)(F)[N+]2=CC=CC2=C3CCN)cc1 [BDM-45]	0.74	564	583
CC1=CC(/C=C/c2ccc(-c3ccccn3)cc2)=[N+]2C1=C(CCN)c1cccn1[B-]2(F)F [BDM-88]	0.21	565	576
Cc1cc(/C=C/c2cc(C(C)(C)C)ccc2O)n2c1C(CCN)=C1C=CC=[N+]1[B-]2(F)F [BDM-43]	0.21	564	579
COc1ccc(F)cc1/C=C/C1=[N+]2C(=C(CCN)c3cccn3[B-]2(F)F)C(C)=C1 [BDM-239]	0.28	559	572
C=CCOc1ccc(/C=C/c2cc(C)c3n2[B-](F)(F)[N+]2=CC=CC2=C3CCN)cc1 [BDM-48]	0.83	563	583
Cc1ccc(O)c(/C=C/c2cc(C)c3n2[B-](F)(F)[N+]2=CC=CC2=C3CCN)c1 [BDM-33]	0.14	564	580
CC1=CC(/C=C/c2ccc(N(C)CCO)cc2)=[N+]2C1=C(CCN)c1cccn1[B-]2(F)F [BDM-91]	0.02	614	699
CC1=CC(/C=C/c2cccc(I)c2)=[N+]2C1=C(CCN)c1cccn1[B-]2(F)F [BDM-303]	0.31	555	566
CC1=CC(/C=C/c2ccc(-c3ccccc3)s2)=[N+]2C1=C(CCN)c1cccn1[B-]2(F)F [BDM-65]	0.15	589	615
CC1=CC(/C=C/c2ccc(-c3ccc(Cl)cc3)o2)=[N+]2C1=C(CCN)c1cccn1[B-]2(F)F [BDM-371]	0.03	590	630
CC1=CC(/C=C/c2ccc(-c3cccc(Cl)c3)o2)=[N+]2C1=C(CCN)c1cccn1[B-]2(F)F [BDM-284]	0.03	594	622

Compound	φ (quantum yield) [1]	λmax (ABS) [2] [nm]	λmax (EM) [2] [nm]
CC1=CC(/C=C/c2ccc(OCCCN(C)C)cc2)=[N+]2C1=C(CCN)c1cccn1[B-]2(F)F [BDM-163]	0.41	566	586
COc1ccc(/C=C/c2cc(C)c3n2[B-](F)(F)[N+]2=CC=CC2=C3CCN)c2ccccc12 [BDM-32]	0.25	576	624
CCOc1cc(/C=C/C2=[N+]3C(=C(CCN)c4cccn4[B-]3(F)F)C(C)=C2)ccc1O [BDM-397]	0.10	570	614
CC1=CC(/C=C/c2cccc(N3CCCC3)c2[N+](=O)[O-])=[N+]2C1=C(CCN)c1cccn1[B-]2(F)F [BDM-357]	0.04	585	687
COc1ccc(Oc2cccc(/C=C/c3cc(C)c4n3[B-](F)(F)[N+]3=CC=CC3=C4CCN)c2)cc1 [BDM-42]	0.25	554	563
CC1=CC(/C=C/c2ccc(C)c(F)c2)=[N+]2C1=C(CCN)c1cccn1[B-]2(F)F [BDM-249]	0.24	557	568
Cc1cc(/C=C/c2ccc(C)c3ccccc23)n2c1C(CCN)=C1C=CC=[N+]1[B-]2(F)F [BDM-36]	0.23	568	595
CC1=CC(/C=C/c2cccc(O)c2)=[N+]2C1=C(CCN)c1cccn1[B-]2(F)F [BDM-105]	0.18	556	567
CC1=CC(/C=C/c2ccc(SC(F)(F)F)cc2)=[N+]2C1=C(CCN)c1cccn1[B-]2(F)F [BDM-363]	0.51	553	564
COc1ccc(Br)cc1/C=C/c1cc(C)c2n1[B-](F)(F)[N+]1=CC=CC1=C2CCN [BDM-54]	0.52	559	573
CC1=CC(/C=C/c2ccc(OCc3ccccc3)cc2)=[N+]2C1=C(CCN)c1cccn1[B-]2(F)F [BDM-90]	0.26	565	582
COc1c(Br)cc(Br)cc1/C=C/C1=[N+]2C(=C(CCN)c3cccn3[B-]2(F)F)C(C)=C1 [BDM-241]	0.32	560	576
COc1ccc(/C=C/C2=[N+]3C(=C(CCN)c4cccn4[B-]3(F)F)C(C)=C2)c(C)c1C [BDM-310]	0.42	566	600
CC1=CC(/C=C/c2ccc(Oc3cccc(Cl)c3)cc2)=[N+]2C1=C(CCN)c1cccn1[B-]2(F)F [BDM-290]	0.36	558	574
COc1ccc(/C=C/C2=[N+]3C(=C(CCN)c4cccn4[B-]3(F)F)C(C)=C2)cc1Br [BDM-260]	0.05	564	582
Cc1cc(/C=C/c2ccc(C=O)cc2)n2c1C(CCN)=C1C=CC=[N+]1[B-]2(F)F [BDM-49]	0.24	562	572
CC1=CC(/C=C/c2ccccc2OCc2ccccc2)=[N+]2C1=C(CCN)c1cccn1[B-]2(F)F [BDM-218]	0.37	559	574
COc1cc(Br)cc(/C=C/C2=[N+]3C(=C(CCN)c4cccn4[B-]3(F)F)C(C)=C2)c1OC [BDM-228]	0.24	557	567
COc1cccc(/C=C/C2=[N+]3C(=C(CCN)c4cccn4[B-]3(F)F)C(C)=C2)c1Cl [BDM-281]	0.28	554	567
CC1=CC(/C=C/c2c(C)cccc2C)=[N+]2C1=C(CCN)c1cccn1[B-]2(F)F [BDM-243]	0.87	543	565
C=CCOc1ccccc1/C=C/C1=[N+]2C(=C(CCN)c3cccn3[B-]2(F)F)C(C)=C1 [BDM-202]	0.52	559	575
CC1=CC(/C=C/c2ccc(Oc3ccc(Cl)cc3)cc2)=[N+]2C1=C(CCN)c1cccn1[B-]2(F)F [BDM-277]	0.59	559	574
COc1ccc(/C=C/c2cc(C)c3n2[B-](F)(F)[N+]2=CC=CC2=C3CCN)cc1OCc1ccccc1 [BDM-7]	0.37	566	591
CC1=CC(/C=C/c2cccc(O)c2Cl)=[N+]2C1=C(CCN)c1cccn1[B-]2(F)F [BDM-283]	0.15	556	567

Reference: US9267949B2, “Alkylamino BODIPY dyes as selective fluorescent probes for proteins and mouse embryonic stem cells” (National University of Singapore, priority 2011, dated 2016)
